± gives the standard deviation of the averaged measurements.
Tests used:
Test in all cases: relative viability vs DMSO control (72 h) (fraction); higher = more viable cells
[1] = tested on: G401
Summary of the method: (§1)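 Sarcoma cell lines went into 384-well plates at densities chosen to reach 80–90% confluence. After 24 h, each well received 2.5 µl of serially diluted compound, with source plates running from 10 mM to 0.0002 mM, and the plates were kept 72 h at 37 °C, 5% CO2, alongside 0.1% DMSO vehicle and a 5 µM positive control. Relative viability was derived from ATPLite readings as percent growth and averaged over up to triplicate wells. The data were then rescaled so that 1 stands for full and 0 for none.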

[2] = tested on: SK-ES-1
Summary of the method: as §1

[3] = tested on: SYO-1
Summary of the method: as §1

[4] = tested on: HS729
Summary of the method: as §1

[5] = tested on: SW872
Summary of the method: as §1

[6] = tested on: SK-LMS-1
Summary of the method: as §1

[7] = tested on: RD
Summary of the method: as §1

[8] = tested on: VA-ES-BJ
Summary of the method: as §1

[9] = tested on: MES-SA
Summary of the method: as §1

[10] = tested on: SW684
Summary of the method: as §1

[11] = tested on: KHOS-NP
Summary of the method: as §1

[12] = tested on: A204
Summary of the method: as §1

COc1cc(OC)cc(N(CCNC(C)C)c2ccc3ncc(-c4cnn(C)c4)nc3c2)c1 [Erdafitinib]
Details	relative viability
[1], 0.00017 µM	0.991 ± 0.018
[1], 0.00051 µM	0.976 ± 0.048
[1], 0.00152 µM	0.933 ± 0.032
[1], 0.00457 µM	0.806 ± 0.027
[1], 0.01372 µM	0.707 ± 0.038
[1], 0.04115 µM	0.591 ± 0.018
[1], 0.1235 µM	0.534 ± 0.017
[1], 0.3704 µM	0.472 ± 0.03
[1], 1.111 µM	0.376 ± 0.025
[1], 3.333 µM	0.233 ± 0.01
[1], 10 µM	0.121 ± 0.0045
[2], 0.00017 µM	1.02 ± 0.045
[2], 0.00051 µM	1.03 ± 0.028
[2], 0.00152 µM	1.04 ± 0.058
[2], 0.00457 µM	1 ± 0.067
[2], 0.01372 µM	0.957 ± 0.018
[2], 0.04115 µM	0.876 ± 0.023
[2], 0.1235 µM	0.872 ± 0.055
[2], 0.3704 µM	0.818 ± 0.053
[2], 1.111 µM	0.702 ± 0.033
[2], 3.333 µM	0.33 ± 0.013
[2], 10 µM	0.181 ± 0.012
[3], 0.00017 µM	0.933 ± 0.068
[3], 0.00051 µM	0.814 ± 0.088
[3], 0.00152 µM	0.734 ± 0.077
[3], 0.00457 µM	0.674 ± 0.087
[3], 0.01372 µM	0.588 ± 0.086
[3], 0.04115 µM	0.519 ± 0.053
[3], 0.1235 µM	0.451 ± 0.016
[3], 0.3704 µM	0.396 ± 0.011
[3], 1.111 µM	0.342 ± 0.008
[3], 3.333 µM	0.248 ± 0.018
[3], 10 µM	-0.0109 ± 0.0042
[4], 0.00017 µM	1 ± 0.06
[4], 0.00051 µM	0.868 ± 0.015
[4], 0.00152 µM	0.844 ± 0.046
[4], 0.00457 µM	0.813 ± 0.081
[4], 0.01372 µM	0.74 ± 0.06
[4], 0.04115 µM	0.613 ± 0.036
[4], 0.1235 µM	0.604 ± 0.0076
[4], 0.3704 µM	0.549 ± 0.023
[4], 1.111 µM	0.487 ± 0.012
[4], 3.333 µM	0.423 ± 0.015
[4], 10 µM	0.37 ± 0.011
[5], 0.00017 µM	1.03 ± 0.05
[5], 0.00051 µM	1.05 ± 0.075
[5], 0.00152 µM	1.07 ± 0.062
[5], 0.00457 µM	1.01 ± 0.083
[5], 0.01372 µM	0.989 ± 0.081
[5], 0.04115 µM	0.985 ± 0.073
[5], 0.1235 µM	0.949 ± 0.091
[5], 0.3704 µM	0.912 ± 0.067
[5], 1.111 µM	0.717 ± 0.045
[5], 3.333 µM	0.5 ± 0.05
[5], 10 µM	0.274 ± 0.063
[6], 0.00017 µM	0.987 ± 0.047
[6], 0.00051 µM	0.991 ± 0.019
[6], 0.00152 µM	0.994 ± 0.023
[6], 0.00457 µM	1 ± 0.054
[6], 0.01372 µM	0.999 ± 0.045
[6], 0.04115 µM	0.954 ± 0.012
[6], 0.1235 µM	0.946 ± 0.04
[6], 0.3704 µM	0.913 ± 0.015
[6], 1.111 µM	0.839 ± 0.026
[6], 3.333 µM	0.673 ± 0.023
[6], 10 µM	0.183 ± 0.0094
[7], 0.00017 µM	1.05 ± 0.037
[7], 0.00051 µM	1.09 ± 0.032
[7], 0.00152 µM	1.08 ± 0.051
[7], 0.00457 µM	1.08 ± 0.032
[7], 0.01372 µM	1.09 ± 0.053
[7], 0.04115 µM	1.09 ± 0.072
[7], 0.1235 µM	1.13 ± 0.076
[7], 0.3704 µM	1.13 ± 0.053
[7], 1.111 µM	1.11 ± 0.052
[7], 3.333 µM	0.677 ± 0.013
[7], 10 µM	0.269 ± 0.028
[8], 0.00017 µM	1.08 ± 0.038
[8], 0.00051 µM	1.05 ± 0.015
[8], 0.00152 µM	1.06 ± 0.051
[8], 0.00457 µM	1.02 ± 0.045
[8], 0.01372 µM	1.04 ± 0.015
[8], 0.04115 µM	1.03 ± 0.025
[8], 0.1235 µM	1.06 ± 0.028
[8], 0.3704 µM	1.04 ± 0.03
[8], 1.111 µM	0.92 ± 0.05
[8], 3.333 µM	0.612 ± 0.021
[8], 10 µM	0.355 ± 0.012
[9], 0.00017 µM	0.911 ± 0.054
[9], 0.00051 µM	0.9276 ± 0.0063
[9], 0.00152 µM	0.909 ± 0.05
[9], 0.00457 µM	0.85 ± 0.02
[9], 0.01372 µM	0.837 ± 0.01
[9], 0.04115 µM	0.741 ± 0.044
[9], 0.1235 µM	0.679 ± 0.028
[9], 0.3704 µM	0.667 ± 0.02
[9], 1.111 µM	0.616 ± 0.03
[9], 3.333 µM	0.409 ± 0.014
[9], 10 µM	0.148 ± 0.0092
[10], 0.00017 µM	1.1 ± 0.073
[10], 0.00051 µM	1.17 ± 0.069
[10], 0.00152 µM	1.13 ± 0.05
[10], 0.00457 µM	1.1 ± 0.087
[10], 0.01372 µM	1.08 ± 0.016
[10], 0.04115 µM	1.04 ± 0.023
[10], 0.1235 µM	1.06 ± 0.031
[10], 0.3704 µM	1.09 ± 0.045
[10], 1.111 µM	0.998 ± 0.038
[10], 3.333 µM	0.739 ± 0.014
[10], 10 µM	0.39 ± 0.013
[11], 0.00017 µM	1.07 ± 0.015
[11], 0.00051 µM	1.06 ± 0.023
[11], 0.00152 µM	1.05 ± 0.021
[11], 0.00457 µM	1.06 ± 0.016
[11], 0.01372 µM	1.04 ± 0.035
[11], 0.04115 µM	1.04 ± 0.025
[11], 0.1235 µM	1.02 ± 0.054
[11], 0.3704 µM	1.01 ± 0.046
[11], 1.111 µM	0.999 ± 0.038
[11], 3.333 µM	0.943 ± 0.061
[11], 10 µM	0.638 ± 0.049
[12], 0.00017 µM	1.04 ± 0.034
[12], 0.00051 µM	1.03 ± 0.011
[12], 0.00152 µM	0.971 ± 0.035
[12], 0.00457 µM	0.934 ± 0.057
[12], 0.01372 µM	0.746 ± 0.054
[12], 0.04115 µM	0.595 ± 0.045
[12], 0.1235 µM	0.422 ± 0.07
[12], 0.3704 µM	0.322 ± 0.085
[12], 1.111 µM	0.194 ± 0.0018
[12], 3.333 µM	0.127 ± 0.013
[12], 10 µM	0.0417 ± 0.0062

From the supplement of paper PMC10883282
